Experimental data taken from patent publication US20050119314A1, “Pharmaceutical composition comprising an ACAT inhibitor and an insulin resistance reducing agent” (SANKYO COMPANY, LIMITED, priority 2002, published 2005).

Test system: apolipoprotein E-deficient mice
Experiment: Determination of areas of pathological changes appearing in the aorta (atherosclerotic lesions and macrophage area in the aortic valve)
Format: in vivo
Settings: male apolipoprotein E-deficient mice, compounds mixed with diet (Compound A 0.03 w/w %, Compound B 0.0001 w/w %) for 12 weeks, average ± standard error; for Rate of area occupied with macrophage: anti-MOMA-2 positive area relative to lesion area
From the text: Determination of Areas of Pathological Changes Appearing in the Aorta
Male apolipoprotein E-deficient mice of 12 weeks of age were divided into 4 groups (10 mice per a group) as follows: control group, group treated with 5-[4-(6-methoxy-1-methylbenzimidazol-2-yl-methoxy)benzyl]thiazolidine-2,4-dione hydrochloride (mixed with diet at a concentration of 0.0001 w/w %, hereinafter referred to as Compound B), group treated with N-(1-octyl-5-carboxymethyl-4,6-dimethylindolin-7-yl)-2,2-dimethylpropanamide hemisulfate (mixed with diet at a concentration of 0.03 w/w %, hereinafter referred to as Compound A), and co-administration group of Compound B (mixed with diet at a concentration of 0.0001 w/w %) and Compound A (mixed with diet at a concentration of 0.03 w/w %). All mice were treated with compounds mixed with diet except the control group for 12 successive weeks. The mice were autopsied in the 12th week and the area of atherosclerotic lesions in the aortic valve and the ratio of the area occupied by macrophages in the same area (positively stained area with anti-MOMA-2) were determined.
(1) Areas of Atherosclerotic Lesions in the Aorta
The aortic valve was stained with elastic-Masson and the area of atherosclerotic lesions in the aortic valve determined. Less-stained areas indicate greater inhibitory effects of the agents on the atherosclerotic lesions as well as suppressive action of the agents against progressive development of atherosclerotic lesions in the aorta.
(2) Rate of Area Occupied by Macrophages
Macrophages in the aortic valve were detected by staining with anti-MOMA-2. Areas occupied by macrophages in the aortic valve were determined and the ratio of the area occupied by macrophages (positively stained areas with anti-MOMA-2) to the area of atherosclerotic lesions in the aortic valve was calculated.
Macrophages are a factor to make plaques unstable. Thus decreases in macrophage accumulation increase plaque stability and are related to amelioration of the atherosclerotic lesions.
The actual measurement value in Table 1 indicates average ± standard error.

Compound	Rate of area occupied with macrophage [%]	Area of atherosclerotic lesions (elastic-Masson stain) [μm^2]
COc1ccc2nc(COc3ccc(CC4SC(=O)NC4=O)cc3)n(C)c2c1.Cl (stereo not drawn) [Compound B, 5-[4-(6-methoxy-1-methylbenzimidazol-2-yl-methoxy)benzyl]thiazolidine-2,4-dione hydrochloride]	23.3 ± 4.1	80616 ± 11611
N-(1-octyl-5-carboxymethyl-4,6-dimethylindolin-7-yl)-2,2-dimethylpropanamide hemisulfate [Compound A]	13.7 ± 2.2	–
